PubChem BioAssay AID248 (DTP/NCI, 2004)
Toxic doses and inconclusive results are not listed. No stated cut-off is given here; in the data, active means T/C of 150% or more; inactive means T/C below 125%.

Test system: L1210 leukemia ip in BDF1 mice, survival T/C
Experiment: NCI In Vivo Anticancer Drug Screen. Data for tumor model L1210 Leukemia (intraperitoneal) in B6D2F1 (BDF1) mice
Settings: endpoint: mean survival time, higher = longer survival
Procedure, shortened: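 Read-out is survival time, reported as the treated-group measurement over the vehicle-control measurement.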

[1] = dose: 100.0 mg/kg/injection, schedule: Q01DX001 (ip), vehicle: saline
[2] = dose: 200.0 mg/kg/injection, schedule: Q01DX001 (ip), vehicle: saline
[3] = dose: 100.0 mg/kg/injection, schedule: Q04DX003 (ip), vehicle: Klucel (hydroxypropylcellulose) (HPC)
[4] = dose: 200.0 mg/kg/injection, schedule: Q04DX003 (ip), vehicle: Klucel (hydroxypropylcellulose) (HPC)
[5] = dose: 400.0 mg/kg/injection, schedule: Q04DX003 (ip), vehicle: Klucel (hydroxypropylcellulose) (HPC)
[6] = dose: 100.0 mg/kg/injection, schedule: Q04DX003 (ip), vehicle: saline with Tween-80
[7] = dose: 200.0 mg/kg/injection, schedule: Q04DX003 (ip), vehicle: saline with Tween-80
[8] = dose: 400.0 mg/kg/injection, schedule: Q04DX003 (ip), vehicle: saline with Tween-80
[9] = dose: 100.0 mg/kg/injection, schedule: Q01DX009 (ip), vehicle: saline with Tween-80
[10] = dose: 200.0 mg/kg/injection, schedule: Q01DX009 (ip), vehicle: saline with Tween-80
[11] = dose: 200.0 mg/kg/injection, schedule: Q01DX Z (ip), vehicle: methylcellulose (MC)
[12] = dose: 100.0 mg/kg/injection, schedule: Q01DX009 (ip), vehicle: Klucel (hydroxypropylcellulose) (HPC)
[13] = dose: 200.0 mg/kg/injection, schedule: Q01DX009 (ip), vehicle: Klucel (hydroxypropylcellulose) (HPC)

Measured: T/C

Nc1nc(N)c(N=Nc2ccc(S(=O)(=O)Nc3ccccn3)cc2)c(N)n1
inactive: [1] 101 % of control | [2] 95 % of control

CNC1(c2ccccc2)CC2CCC(C2)C1O (centres undefined)
inactive: [1] 98 % of control | [3] 101 % of control | [2] 106 % of control | [4] 104 % of control | dose: 400.0 mg/kg/injection, schedule: Q01DX001 (ip), vehicle: saline 101 % of control | [5] 108 % of control

CCCCCCCCCCCCOc1ccc(Br)cc1
inactive: [6] 98 % of control | [7] 92 % of control | [8] 96 % of control

CN(C)C(=O)C1CCC1
inactive: [9] 91 % of control | [6] 103 % of control | [10] 105 % of control | [7] 101 % of control | dose: 400.0 mg/kg/injection, schedule: Q01DX009 (ip), vehicle: saline with Tween-80 100 % of control | [8] 104 % of control

COc1ccccc1N1CCN(CCCC(O)c2ccc(F)cc2)CC1 (centres undefined)
inactive: dose: 10.0 mg/kg/injection, schedule: Q04DX003 (ip), vehicle: Klucel (hydroxypropylcellulose) (HPC) 91 % of control | dose: 12.5 mg/kg/injection, schedule: Q01DX009 (ip), vehicle: Klucel (hydroxypropylcellulose) (HPC) 98 % of control | dose: 20.0 mg/kg/injection, schedule: Q04DX003 (ip), vehicle: Klucel (hydroxypropylcellulose) (HPC) 98 % of control | dose: 25.0 mg/kg/injection, schedule: Q01DX009 (ip), vehicle: Klucel (hydroxypropylcellulose) (HPC) 100 % of control | dose: 40.0 mg/kg/injection, schedule: Q04DX003 (ip), vehicle: Klucel (hydroxypropylcellulose) (HPC) 90 % of control | dose: 50.0 mg/kg/injection, schedule: Q01DX009 (ip), vehicle: Klucel (hydroxypropylcellulose) (HPC) 98 % of control

CCOC(=O)c1cnccc1C#N
inactive: dose: 100.0 mg/kg/injection, schedule: Q04DX002 (ip), vehicle: Klucel (hydroxypropylcellulose) (HPC) 88 % of control | dose: 200.0 mg/kg/injection, schedule: Q04DX002 (ip), vehicle: Klucel (hydroxypropylcellulose) (HPC) 100 % of control | dose: 400.0 mg/kg/injection, schedule: Q04DX002 (ip), vehicle: Klucel (hydroxypropylcellulose) (HPC) 100 % of control

CCc1c(Cl)nc(N)nc1Cl
inactive: dose: 100.0 mg/kg/injection, schedule: Q01DX Z (ip), vehicle: methylcellulose (MC) 95 % of control | [11] 89 % of control

O=[N+]([O-])c1ccc(S(=O)(=O)OCC2CO2)cc1 (centres undefined)
inactive: dose: 100.0 mg/kg/injection, schedule: Q01DX008 (ip), vehicle: Klucel (hydroxypropylcellulose) (HPC) 108 % of control | dose: 200.0 mg/kg/injection, schedule: Q01DX008 (ip), vehicle: Klucel (hydroxypropylcellulose) (HPC) 95 % of control | dose: 400.0 mg/kg/injection, schedule: Q01DX008 (ip), vehicle: Klucel (hydroxypropylcellulose) (HPC) 89 % of control

Cc1ccc(S(=O)(=O)OCC2OC(n3ccc(=O)[nH]c3=O)C3OC(C)(C)OC23)cc1 (centres undefined)
inactive: dose: 100.0 mg/kg/injection, schedule: Q01DX005 (ip), vehicle: saline 122 % of control

COc1ccccc1NC(=O)NCCN1CCCC1
inactive: [12] 98 % of control | [13] 98 % of control

COc1ccc(Cl)cc1/C=C/C=N/NC(=O)c1cccc(C)c1O
inactive: dose: 75.0 mg/kg/injection, schedule: Q01DX001 (ip), vehicle: carboxymethylcellulose (CMC) 86 % of control | dose: 150.0 mg/kg/injection, schedule: Q01DX001 (ip), vehicle: carboxymethylcellulose (CMC) 89 % of control | dose: 300.0 mg/kg/injection, schedule: Q01DX001 (ip), vehicle: carboxymethylcellulose (CMC) 86 % of control

COC(=O)CNC(=O)CCNC(=O)OCc1ccccc1
inactive: [6] 98 % of control | [7] 97 % of control | [8] 98 % of control

CCCCCCCCCC(C)Cc1ccccc1 (centres undefined)
inactive: dose: 100.0 mg/kg/injection, schedule: Q01DX001 (ip), vehicle: saline with Tween-80 100 % of control | dose: 200.0 mg/kg/injection, schedule: Q01DX001 (ip), vehicle: saline with Tween-80 100 % of control | dose: 400.0 mg/kg/injection, schedule: Q01DX001 (ip), vehicle: saline with Tween-80 92 % of control

CCOc1ccc(NC2CNC(=O)NC2=O)cc1 (centres undefined)
inactive: [11] 91 % of control

O/N=C(\C=N\O)c1ccccc1
inactive: dose: 100.0 mg/kg/injection, schedule: Q01DX009 (sc), vehicle: olive oil, sesame oil, peanut oil 109 % of control | dose: 100.0 mg/kg/injection, schedule: Q04DX003 (sc), vehicle: olive oil, sesame oil, peanut oil 98 % of control | dose: 200.0 mg/kg/injection, schedule: Q01DX009 (sc), vehicle: olive oil, sesame oil, peanut oil 112 % of control | dose: 200.0 mg/kg/injection, schedule: Q04DX003 (sc), vehicle: olive oil, sesame oil, peanut oil 101 % of control | dose: 400.0 mg/kg/injection, schedule: Q01DX009 (sc), vehicle: olive oil, sesame oil, peanut oil 98 % of control

Clc1ccc(N/N=C(\Oc2ccccc2)c2ccccc2)cc1
inactive: [6] 104 % of control | [8] 98 % of control

CCN(CC)CCCC(C)Nc1ccnc2cc(C(F)(F)F)ccc12 (centres undefined)
inactive: dose: 5.0 mg/kg/injection, schedule: Q01DX001 (ip), vehicle: carboxymethylcellulose (CMC) 104 % of control | dose: 10.0 mg/kg/injection, schedule: Q01DX001 (ip), vehicle: carboxymethylcellulose (CMC) 106 % of control | dose: 20.0 mg/kg/injection, schedule: Q01DX001 (ip), vehicle: carboxymethylcellulose (CMC) 90 % of control | dose: 40.0 mg/kg/injection, schedule: Q01DX001 (ip), vehicle: carboxymethylcellulose (CMC) 104 % of control

S=c1[nH]sc(=S)[nH]1
inactive: [9] 100 % of control | [10] 98 % of control

O=C(NNC(=S)Nc1ccccc1Cl)c1ccncc1
inactive: dose: 75.0 mg/kg/injection, schedule: Q01DX009 (ip), vehicle: Klucel (hydroxypropylcellulose) (HPC) 93 % of control | dose: 150.0 mg/kg/injection, schedule: Q01DX009 (ip), vehicle: Klucel (hydroxypropylcellulose) (HPC) 97 % of control | dose: 300.0 mg/kg/injection, schedule: Q01DX009 (ip), vehicle: Klucel (hydroxypropylcellulose) (HPC) 101 % of control

O=C1CCC(OC(=O)c2ccccc2)CC1
inactive: [12] 97 % of control | [3] 101 % of control | [13] 95 % of control | [4] 101 % of control | dose: 400.0 mg/kg/injection, schedule: Q01DX009 (ip), vehicle: Klucel (hydroxypropylcellulose) (HPC) 100 % of control | [5] 90 % of control

CC(=O)N1CCC(CC2CCCCC2)CC1
inactive: dose: 12.5 mg/kg/injection, schedule: Q04DX003 (ip), vehicle: saline 97 % of control | dose: 25.0 mg/kg/injection, schedule: Q04DX003 (ip), vehicle: saline 100 % of control | dose: 50.0 mg/kg/injection, schedule: Q04DX003 (ip), vehicle: saline 100 % of control
